Data published in publication PMC6888615, “A Miniaturized Pump Out Method for Characterizing Molecule Interaction with ABC Transporters” (International Journal of Molecular Sciences, 2019).
Read-outs that look alike come from different tables or passages of the source.

How the values were obtained:
MRPs [1] = conditions: cited from earlier work
P-gp/BCRP [2] = experiment: Caco-2 pump out assay, rhodamine 123 excretion; conditions: for Ratio Kout 96/384 wells, P-gp/BCRP: Kout R123 96-well / 384-well; for decrease of Kout of R123: 50 µM (cyclosporin A, elacridar, TPGS 10 µM; doxorubicin 20 µM);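 as to all read-outs here: Caco-2 cells loaded 120 min with 10 µM rhodamine 123, then dye efflux read by fluorescence at 37 °C every 2 min for 1 h, Kout as slope, compared against compound-free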
P-gp [3] = conditions: cited from earlier work
MRPs [4] = experiment: Caco-2 pump out assay, CMFDA excretion; format: cell-based; conditions: for effect on rate out of CMFDA: 50 µM (cyclosporin A 10 µM; doxorubicin 20 µM); for reduction of kout of CMFDA: 50 µM (elacridar 10 µM), p < 0.001
BCRP = conditions: cited from earlier work
MRPs [5] = tested on: MRPs; design: method as in PMID 21415249; conditions: read-out: MRPs IC50 published value; cited from earlier work
[6] = Bidirectional transport (Papp) across Caco-2 monolayers on 24-well inserts, 21 days; conditions: human, Caco-2, pH 7.4
P-gp/BCRP [7] = tested on: P-gp/BCRP;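 also: Caco-2 cells loaded 120 min with 10 µM rhodamine 123, then dye efflux read by fluorescence at 37 °C every 2 min for 1 h, Kout as slope, compared against compound-free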
[8] = tested on: efflux pump activity in Caco-2 cells; experiment: b→a permeability of doxorubicin across Caco-2 with efflux pump inhibitors; format: in vitro ADME; conditions: doxorubicin 20 µM; cyclosporin A 10 µM, elacridar 0.5 µM
P-gp [9] = conditions: read-out: P-gp IC50 based on the digoxin ER; cited from earlier work

Molecule: CN(C)C(=O)CCSC(SCCC(=O)O)c1cccc(C=Cc2ccc3ccc(Cl)cc3n2)c1 (centres unmarked) [MK571, 3-[[3-[2-(7-chloroquinolin-2-yl)vinyl]phenyl]-(2-dimethylcarbamoylethylsulfanyl)methylsulfanyl] propionic acid]
- IC50 (MRPs [1]): 10 µM
- kout Rho 123, mean (P-gp/BCRP [2]): 70.9 ± 10.6 pmol.min^−1.mg^−1 Protein
- Transporter interaction, P-gp/BCRP (P-gp/BCRP [2]; 96 wells): + (Interaction with efflux pumps when Kout ≤ 80% of control)
- Transporter interaction, P-gp/BCRP (P-gp/BCRP [2]; 384 wells): + (Interaction with efflux pumps when Kout ≤ 80% of control)
- Ratio Kout 96/384 wells, P-gp/BCRP (P-gp/BCRP [2]): 1.19
- effect on rate out of cell of R123 (P-gp/BCRP [2]; MK571 50 µM, p < 0.001): slight reduction
- IC50 (P-gp [3]): 26 µM
- effect on rate out of CMFDA (MRPs [4]): decreased strongly
- Transporter interaction, MRPs (MRPs [4]; 96 wells): + (Interaction with efflux pumps when Kout ≤ 80% of control)
- Transporter interaction, MRPs (MRPs [4]; 384 wells): + (Interaction with efflux pumps when Kout ≤ 80% of control)
- IC50 (MRPs [4]; read-out: IC50 towards MRPs activity (CMFDA excretion), non-linear regression of pump out assay data): 3.8 µM
- IC50 (BCRP): 50 µM
- IC50 (MRPs [5]): 2.43 µM

Molecule: COC(=O)c1ccccc1-c1c2ccc(=N)cc-2oc2cc(N)ccc12 [R123, rhodamine 123]
- Papp A→B at 1 h [6]: 1.51 ± 0.01 ×10⁻⁶ cm/s
- Papp B→A at 1 h [6]: 8.94 ± 0.4 ×10⁻⁶ cm/s
- efflux ratio at 1 h, 20 µM [6]: 5.96 ± 0.26

Molecule: CC(=O)Nc1ccc(O)cc1 [acetanomiphen]
- kout Rho 123, mean (P-gp/BCRP [2]): 113.7 ± 12.6 pmol.min^−1.mg^−1 Protein
- Ratio Kout 96/384 wells, P-gp/BCRP (P-gp/BCRP [2]): 1.08

Molecule: O=C(O)Cc1ccccc1Nc1c(Cl)cccc1Cl [diclofenac]
- Transporter interaction, MRPs (MRPs [4]; 96 wells): −
- Transporter interaction, MRPs (MRPs [4]; 384 wells): −

Molecule: COc1ccc([C@@H]2Sc3ccccc3N(CCN(C)C)C(=O)[C@@H]2OC(C)=O)cc1 [diltiazem]
- Transporter interaction, MRPs (MRPs [4]; 96 wells): −
- Transporter interaction, MRPs (MRPs [4]; 384 wells): −

Molecule: COc1cccc2c1C(=O)c1c(O)c3c(c(O)c1C2=O)C[C@@](O)(C(=O)CO)C[C@@H]3O[C@H]1C[C@H](N)[C@H](O)[C@H](C)O1 [doxorubicin]
- Papp A→B at 1 h [6]: 0.36 ± 0.03 ×10⁻⁶ cm/s
- Papp B→A at 1 h [6]: 7.6 ± 0.4 ×10⁻⁶ cm/s
- efflux ratio at 1 h, 20 µM [6]: 21.9 ± 1.11
- Transporter interaction, P-gp/BCRP (P-gp/BCRP [7]; 96 wells): + (Interaction with efflux pumps when Kout ≤ 80% of control)
- Transporter interaction, P-gp/BCRP (P-gp/BCRP [7]; 384 wells): + (Interaction with efflux pumps when Kout ≤ 80% of control)
- decrease of Kout of R123 (P-gp/BCRP [2]; p < 0.001): more than 30%
- Ratio Kout 96/384 wells, P-gp/BCRP (P-gp/BCRP [2]): 1.03
- effect on rate out of CMFDA (MRPs [4]): decreased strongly
- Transporter interaction, MRPs (MRPs [4]; 96 wells): + (Interaction with efflux pumps when Kout ≤ 80% of control)
- Transporter interaction, MRPs (MRPs [4]; 384 wells): −

Molecule: COc1cc2c(cc1OC)CN(CCc1ccc(NC(=O)c3cccc4c(=O)c5cccc(OC)c5[nH]c34)cc1)CC2 [elacridar]
- Transporter interaction, P-gp/BCRP (P-gp/BCRP [7]; 96 wells): + (Interaction with efflux pumps when Kout ≤ 80% of control)
- Transporter interaction, P-gp/BCRP (P-gp/BCRP [7]; 384 wells): + (Interaction with efflux pumps when Kout ≤ 80% of control)
- decrease of Kout of R123 (P-gp/BCRP [2]; p < 0.001): more than 30%
- Ratio Kout 96/384 wells, P-gp/BCRP (P-gp/BCRP [2]): 0.81
- reduction of kout of CMFDA (MRPs [4]): more than 20%
- Transporter interaction, MRPs (MRPs [4]; 96 wells): + (Interaction with efflux pumps when Kout ≤ 80% of control)
- Transporter interaction, MRPs (MRPs [4]; 384 wells): + (Interaction with efflux pumps when Kout ≤ 80% of control)
- reduction of b→a permeability of doxorubicin [8]: 25%

Molecule: CN(C)C(=O)C(CCN1CCC(O)(c2ccc(Cl)cc2)CC1)(c1ccccc1)c1ccccc1 [loperamide]
- kout Rho 123, mean (P-gp/BCRP [2]): 42.0 ± 4.9 pmol.min^−1.mg^−1 Protein
- decrease of Kout of R123 (P-gp/BCRP [2]; p < 0.001): more than 30%
- Transporter interaction, P-gp/BCRP (P-gp/BCRP [2]; 96 wells): + (Interaction with efflux pumps when Kout ≤ 80% of control)
- Transporter interaction, P-gp/BCRP (P-gp/BCRP [2]; 384 wells): + (Interaction with efflux pumps when Kout ≤ 80% of control)
- Ratio Kout 96/384 wells, P-gp/BCRP (P-gp/BCRP [2]): 1.01
- reduction of kout of CMFDA (MRPs [4]): more than 20%
- Transporter interaction, MRPs (MRPs [4]; 96 wells): + (Interaction with efflux pumps when Kout ≤ 80% of control)
- Transporter interaction, MRPs (MRPs [4]; 384 wells): + (Interaction with efflux pumps when Kout ≤ 80% of control)

Molecule: OC[C@@H](O)[C@@H](O)[C@H](O)[C@H](O)CO [mannitol, Mannitol D-[1-14C]]
- Papp A→B at 1 h [6]: 0.26 ± 0.03 ×10⁻⁶ cm/s
- Papp B→A at 1 h [6]: 0.32 ± 0.03 ×10⁻⁶ cm/s

Molecule: CCC1(c2ccccc2)C(=O)NC(=O)NC1=O [phenobarbital]
- kout Rho 123, mean (P-gp/BCRP [2]): 107.1 ± 10.0 pmol.min^−1.mg^−1 Protein
- Ratio Kout 96/384 wells, P-gp/BCRP (P-gp/BCRP [2]): 1.09

Molecule: C=C[C@H]1C[N@@]2CC[C@H]1C[C@@H]2[C@@H](O)c1ccnc2ccc(OC)cc12 [quinidine]
- IC50 (P-gp [9]): 4.9 ± 0.9 µM

Molecule: CO[C@H]1/C=C/O[C@@]2(C)Oc3c(C)c(O)c4c(O)c(c(/C=N/N5CCN(C)CC5)c(O)c4c3C2=O)NC(=O)/C(C)=C\C=C\[C@H](C)[C@H](O)[C@@H](C)[C@@H](O)[C@@H](C)[C@H](OC(C)=O)[C@@H]1C [rifampicin]
- Transporter interaction, P-gp/BCRP (P-gp/BCRP [7]; 96 wells): + (Interaction with efflux pumps when Kout ≤ 80% of control)
- Transporter interaction, P-gp/BCRP (P-gp/BCRP [7]; 384 wells): + (Interaction with efflux pumps when Kout ≤ 80% of control)
- decrease of Kout of R123 (P-gp/BCRP [2]; p < 0.001): more than 30%
- Ratio Kout 96/384 wells, P-gp/BCRP (P-gp/BCRP [2]): 1.12
- reduction of kout of CMFDA (MRPs [4]): more than 20%

Molecule: CC[C@]1(O)C[C@@H]2CN(CCc3c([nH]c4ccccc34)[C@@](C(=O)OC)(c3cc4c(cc3OC)N(C)[C@H]3[C@@](O)(C(=O)OC)[C@H](OC(C)=O)[C@]5(CC)C=CCN6CC[C@]43[C@@H]65)C2)C1 [vinblastine]
- decrease of Kout of R123 (P-gp/BCRP [2]; p < 0.001): more than 30%
- Transporter interaction, P-gp/BCRP (P-gp/BCRP [2]; 96 wells): + (Interaction with efflux pumps when Kout ≤ 80% of control)
- Transporter interaction, P-gp/BCRP (P-gp/BCRP [2]; 384 wells): + (Interaction with efflux pumps when Kout ≤ 80% of control)
- Ratio Kout 96/384 wells, P-gp/BCRP (P-gp/BCRP [2]): 0.99
- reduction of kout of CMFDA (MRPs [4]): more than 20%

Molecule: D-α-Tocopherol polyethylene glycol 1000 succinate
- kout Rho 123, mean (P-gp/BCRP [2]): 33.7 ± 2.7 pmol.min^−1.mg^−1 Protein
- decrease of Kout of R123 (P-gp/BCRP [2]; p < 0.001): more than 30%
- Transporter interaction, P-gp/BCRP (P-gp/BCRP [2]; 96 wells): + (Interaction with efflux pumps when Kout ≤ 80% of control)
- Transporter interaction, P-gp/BCRP (P-gp/BCRP [2]; 384 wells): + (Interaction with efflux pumps when Kout ≤ 80% of control)

Molecule: Lucifer yellow
- Papp of Lucifer yellow (apical-to-basal) (Caco-2 cells): 0.066 ± 0.016 × 10^−6 cm/s
